Experimental data: patent US11208412B2 (DAEGU-GYEONGBUK MEDICAL INNOVATION FOUNDATION, priority 2017, dated 2021)

Experiments:
Test in all cases: Kinase selectivity, DiscoverX scanMAX Kinase assay panel (% control)
Assay type in all cases: binding
[1] = target: T1, kinases of the scanMAX Kinase assay panel (Homo sapiens, UniProt P15735); settings: PHKG2; 1 uM
T1 construct: purchased DiscoverX Co. (contract measurement) scanMAX Kinase assay panel
T1 sequence (P15735 1-406): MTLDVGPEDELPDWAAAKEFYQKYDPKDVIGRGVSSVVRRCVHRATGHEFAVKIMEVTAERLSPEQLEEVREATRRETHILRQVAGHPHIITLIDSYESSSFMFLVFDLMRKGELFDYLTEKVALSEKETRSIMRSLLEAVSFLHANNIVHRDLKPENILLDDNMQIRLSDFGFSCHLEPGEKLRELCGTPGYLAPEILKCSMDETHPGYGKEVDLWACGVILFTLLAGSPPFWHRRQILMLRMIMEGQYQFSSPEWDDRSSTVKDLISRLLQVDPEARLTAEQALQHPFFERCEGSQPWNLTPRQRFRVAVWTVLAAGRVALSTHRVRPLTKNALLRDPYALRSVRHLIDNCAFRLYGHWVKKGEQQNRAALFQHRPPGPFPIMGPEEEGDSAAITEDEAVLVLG
Summary of the method: (§1)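 Single-point screen, 1 uM cpd in DMSO. % ctrl = (cpd − pos ctrl)/(neg ctrl − pos ctrl)×100; pos ctrl = 0%, DMSO neg ctrl = 100%. Hit cutoff <35%.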

[2] = target: T2, kinases of the scanMAX Kinase assay panel (Homo sapiens, UniProt Q9BZL6); settings: PRKD2; 1 uM
T2 construct: purchased DiscoverX Co. (contract measurement) scanMAX Kinase assay panel
T2 sequence (Q9BZL6 1-878): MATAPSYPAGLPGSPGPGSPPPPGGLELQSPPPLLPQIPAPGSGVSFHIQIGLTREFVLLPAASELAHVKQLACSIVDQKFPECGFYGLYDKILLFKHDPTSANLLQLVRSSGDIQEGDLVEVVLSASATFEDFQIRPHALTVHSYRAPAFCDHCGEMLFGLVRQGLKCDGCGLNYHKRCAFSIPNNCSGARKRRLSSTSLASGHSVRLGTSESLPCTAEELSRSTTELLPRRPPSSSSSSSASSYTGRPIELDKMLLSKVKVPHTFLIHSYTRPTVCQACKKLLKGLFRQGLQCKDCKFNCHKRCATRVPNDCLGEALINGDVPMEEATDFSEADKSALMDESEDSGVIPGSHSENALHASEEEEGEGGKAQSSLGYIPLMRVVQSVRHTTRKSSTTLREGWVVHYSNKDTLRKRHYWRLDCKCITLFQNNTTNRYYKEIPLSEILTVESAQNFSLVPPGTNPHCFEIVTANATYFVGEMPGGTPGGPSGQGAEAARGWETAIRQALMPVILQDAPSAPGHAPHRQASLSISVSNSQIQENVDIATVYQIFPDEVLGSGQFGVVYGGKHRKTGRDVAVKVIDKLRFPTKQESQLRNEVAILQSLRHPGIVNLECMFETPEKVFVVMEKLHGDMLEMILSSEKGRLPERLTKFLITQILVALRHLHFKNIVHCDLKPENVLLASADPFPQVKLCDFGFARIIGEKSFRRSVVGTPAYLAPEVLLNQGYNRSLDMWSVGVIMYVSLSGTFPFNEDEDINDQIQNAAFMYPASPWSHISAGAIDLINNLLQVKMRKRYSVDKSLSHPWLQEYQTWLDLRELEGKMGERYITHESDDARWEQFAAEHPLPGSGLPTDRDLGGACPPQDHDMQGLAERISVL
Summary of the method: as §1

[3] = target: T3, kinases of the scanMAX Kinase assay panel (Homo sapiens, UniProt Q96Q40); settings: PFTAIRE2; 1 uM
T3 construct: purchased DiscoverX Co. (contract measurement) scanMAX Kinase assay panel
T3 sequence (Q96Q40 whole entry): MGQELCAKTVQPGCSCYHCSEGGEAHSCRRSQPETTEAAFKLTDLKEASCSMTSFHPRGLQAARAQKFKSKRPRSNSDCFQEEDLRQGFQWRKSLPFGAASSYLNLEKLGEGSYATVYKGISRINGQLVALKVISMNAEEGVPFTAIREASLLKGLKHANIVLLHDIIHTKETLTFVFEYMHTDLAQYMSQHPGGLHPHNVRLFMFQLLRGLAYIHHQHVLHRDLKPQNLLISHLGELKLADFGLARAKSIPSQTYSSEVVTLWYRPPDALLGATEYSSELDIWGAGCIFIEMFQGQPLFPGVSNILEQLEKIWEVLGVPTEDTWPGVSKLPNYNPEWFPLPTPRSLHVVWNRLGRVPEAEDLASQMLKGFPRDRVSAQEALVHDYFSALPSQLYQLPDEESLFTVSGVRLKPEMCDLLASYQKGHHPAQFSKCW
Summary of the method: as §1

[4] = target: T4, kinases of the scanMAX Kinase assay panel (Homo sapiens, UniProt Q6ZWH5); settings: NEK10; 1 uM
T4 construct: purchased DiscoverX Co. (contract measurement) scanMAX Kinase assay panel
T4 sequence (Q6ZWH5 1-1172): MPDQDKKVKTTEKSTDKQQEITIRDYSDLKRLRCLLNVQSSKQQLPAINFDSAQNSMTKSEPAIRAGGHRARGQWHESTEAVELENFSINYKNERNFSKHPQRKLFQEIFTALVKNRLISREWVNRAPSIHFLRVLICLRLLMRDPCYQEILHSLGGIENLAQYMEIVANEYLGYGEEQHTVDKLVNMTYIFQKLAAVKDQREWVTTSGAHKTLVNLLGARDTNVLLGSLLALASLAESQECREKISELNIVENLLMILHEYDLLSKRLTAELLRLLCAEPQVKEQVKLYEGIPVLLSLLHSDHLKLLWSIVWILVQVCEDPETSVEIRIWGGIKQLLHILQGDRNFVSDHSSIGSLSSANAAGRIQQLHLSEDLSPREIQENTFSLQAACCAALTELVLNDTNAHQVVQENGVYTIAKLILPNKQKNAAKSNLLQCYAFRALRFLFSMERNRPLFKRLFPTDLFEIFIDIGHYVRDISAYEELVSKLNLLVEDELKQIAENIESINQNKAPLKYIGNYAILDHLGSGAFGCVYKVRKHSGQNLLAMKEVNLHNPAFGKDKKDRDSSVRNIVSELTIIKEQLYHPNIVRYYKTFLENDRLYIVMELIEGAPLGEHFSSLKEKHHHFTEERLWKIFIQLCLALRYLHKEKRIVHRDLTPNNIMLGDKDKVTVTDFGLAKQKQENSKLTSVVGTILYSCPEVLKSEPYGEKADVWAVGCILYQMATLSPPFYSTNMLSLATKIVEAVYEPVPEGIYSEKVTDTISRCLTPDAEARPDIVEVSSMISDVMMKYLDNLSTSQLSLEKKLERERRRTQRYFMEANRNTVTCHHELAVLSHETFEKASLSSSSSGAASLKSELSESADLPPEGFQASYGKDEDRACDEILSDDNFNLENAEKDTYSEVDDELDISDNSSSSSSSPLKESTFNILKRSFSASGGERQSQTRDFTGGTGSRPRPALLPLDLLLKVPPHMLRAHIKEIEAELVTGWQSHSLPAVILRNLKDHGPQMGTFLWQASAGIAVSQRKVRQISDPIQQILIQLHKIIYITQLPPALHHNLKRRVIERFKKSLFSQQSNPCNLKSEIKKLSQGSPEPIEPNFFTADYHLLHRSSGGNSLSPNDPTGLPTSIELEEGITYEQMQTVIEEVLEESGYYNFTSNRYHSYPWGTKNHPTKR
Summary of the method: as §1

[5] = target: T5, kinases of the scanMAX Kinase assay panel (Homo sapiens, UniProt P49760); settings: CLK2; 1 uM
T5 construct: purchased DiscoverX Co. (contract measurement) scanMAX Kinase assay panel
T5 sequence (P49760 whole entry): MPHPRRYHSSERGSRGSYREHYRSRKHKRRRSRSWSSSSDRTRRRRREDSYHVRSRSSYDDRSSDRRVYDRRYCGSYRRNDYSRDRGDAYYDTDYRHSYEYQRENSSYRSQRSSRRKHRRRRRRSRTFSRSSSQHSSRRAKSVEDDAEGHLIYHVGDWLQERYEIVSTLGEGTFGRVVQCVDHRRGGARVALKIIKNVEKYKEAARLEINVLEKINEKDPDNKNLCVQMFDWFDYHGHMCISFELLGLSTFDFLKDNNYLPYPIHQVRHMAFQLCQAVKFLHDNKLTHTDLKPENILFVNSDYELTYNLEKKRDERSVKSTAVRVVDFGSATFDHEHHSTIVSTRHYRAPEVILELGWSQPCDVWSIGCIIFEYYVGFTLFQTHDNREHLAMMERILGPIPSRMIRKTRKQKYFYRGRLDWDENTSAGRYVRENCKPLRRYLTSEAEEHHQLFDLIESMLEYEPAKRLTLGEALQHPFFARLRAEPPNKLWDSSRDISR
Summary of the method: as §1

Structure (SMILES) | remaining binding at 1 µM [1] | remaining binding at 1 µM [2] | remaining binding at 1 µM [3] | remaining binding at 1 µM [4] | remaining binding at 1 µM [5]
CCNc1nc(Nc2ccc(C(=O)N3CCC(N4CCOCC4)CC3)cc2OC)nc2[nH]cc(C(F)(F)F)c12 [Example 104, (4-((4-(ethylamino)-5-(trifluoromethyl)-7H-pyrrolo[2,3-d]pyrimidine-2-yl)amino)-3-methoxyphenyl)(4-morpholinopiperidine-1-yl)methanone] | 9.3% | 16% | 99% | 100% | 0.9%
CC1(Nc2nc(Nc3cnn([C@H]4CCN(C5COC5)C[C@@H]4F)c3Cl)nc3[nH]cc(C#N)c23)CC1 [Example 52, 2-((5-chloro-1-((3S,4S)-3-fluoro-1-(oxetane-3-yl)piperidine-4-yl)-1H-pyrazole-4-yl)amino)((1-methylcyclopropyl)amino)-7H-pyrrolo[2,3-d]pyrimidine-5-carbonitrile] | 5.2% | 9.1% | 90% | 0.95% | 2.6%
CNc1nc(Nc2ccc(C(=O)N3CCOCC3)cc2OC)nc2[nH]cc(C#N)c12 [Example 1, 2-((2-methoxy-4-(morpholine-4-carbonyl)phenyl)amino)-4-(methylamino)-7H-pyrrolo[2,3-d]pyrimidine-5-carbonitrile] | 14% | 28% | 97% | 53% | 5.9%
